According to patent publication US6627659B1, “Methods of decreasing the effects of oxidative stress using N-acetylcysteine” (Zambon Group S.p.A., priority 1999, dated 2003):

Legend:
[1] = test system: patients undergoing dialysis; details: oral administration; Atherosclerosis 120 (1996) 241-244; cited from earlier work
[2] = test system: NADPH oxidase activity in neutrophils; experiment: AOPP-HSA-induced NADPH oxidase activity in neutrophils, lucigenin chemiluminescence; assay type: cell-based; details: neutrophils preincubated with various concentrations of NAC, AOPP-HSA 2 mg/ml, FIG. 2A
Experimental: (§1) Human serum albumin (HSA) was exposed to HOCl at a molar HSA/HOCl molar ratio of 1/60. The AOPP-HSA preparation was incubated 30 minutes at room temperature and then dialysed overnight against PBS. Neutrophils from the Ficoll gradient pellet were separated from erythrocytes by sedimentation in dextran. Residual erythrocytes were lysed by treating the cell pellet with lysis buffer containing ammonium chloride. Purified neutrophils were resuspended at a concentration of 5×10^6/ml in phenol-red free HBSS at pH 7.4 and preincubated with medium alone or various concentrations of NAC. The capacity of AOPP-HSA to activate monocyte or neutrophil oxygenation activities was measured by chemiluminescence using dimethylbiacridinium (lucigenin) for NADH oxidase activity or luminol for myeloperoxidase activity as chemoluminogenic substrates. One hundred microliters of monocyte suspension (2×10^5/ml) was automatically injected into the luminometer tubes containing 100 μl of HBSS (basal activity), or the tested preparations including: native HSA or AOPP-HSA at 2 mg/ml. Chemiluminescence production was measured in duplicate and luminescence intensity was expressed in counts/min integrated over a 40 minutes period.

[3] = test system: NADPH oxidase activity in monocytes; experiment: AOPP-HSA-induced NADPH oxidase activity in monocytes, lucigenin chemiluminescence; assay type: cell-based; details: AOPP-HSA 2 mg/ml, counts/min over 40 minutes, FIG. 2B
Experimental: (§2) Human serum albumin (HSA) was exposed to HOCl at a molar HSA/HOCl molar ratio of 1/60. The AOPP-HSA preparation was incubated 30 minutes at room temperature and then dialysed overnight against PBS. Isolation of monocytes was performed by an indirect magnetic labelling system which allows the magnetic depletion of non monocytes i.e., T cells, B cells, NK cells, dendritic cells and basophils from a mononuclear cell suspension (obtained by blood sedimentation on a Ficoll gradient) using a cocktail of CD3, CD7, CD19, CD45RA, CD56 and anti-IgE antibodies. Purified monocytes were resuspended at a concentration of 2.5×10^6/ml in phenol-red free Hank's balanced salt solution (HBSS). The capacity of AOPP-HSA to activate monocyte or neutrophil oxygenation activities was measured by chemiluminescence using dimethylbiacridinium (lucigenin) for NADH oxidase activity or luminol for myeloperoxidase activity as chemoluminogenic substrates. One hundred microliters of monocyte suspension (2×10^5/ml) was automatically injected into the luminometer tubes containing 100 μl of HBSS (basal activity), or the tested preparations including: native HSA or AOPP-HSA at 2 mg/ml. Chemiluminescence production was measured in duplicate and luminescence intensity was expressed in counts/min integrated over a 40 minutes period.

[4] = test system: myeloperoxidase activity in neutrophils; experiment: AOPP-HSA-induced myeloperoxidase activity in neutrophils, luminol chemiluminescence; assay type: cell-based; details: neutrophils preincubated with various concentrations of NAC, AOPP-HSA 2 mg/ml, FIG. 1A
Experimental: as §1

[5] = test system: myeloperoxidase activity in monocytes; experiment: AOPP-HSA-induced myeloperoxidase activity in monocytes, luminol chemiluminescence; assay type: cell-based; details: AOPP-HSA 2 mg/ml, counts/min over 40 minutes, FIG. 1B
Experimental: as §2

In the case of `CC(=O)N[C@@H](CS)C(=O)O` [NAC, N-acetylcysteine], the “efficacy in the treatment of patients undergoing dialysis” value [1] is given as “without efficacy”, the “inhibition of NADPH oxidase activity triggered by AOPP-HSA” value [2] is given as “dose-dependent inhibition” and the “inhibition of NADPH oxidase activity triggered by AOPP-HSA” value [3] is given as “dose-dependent inhibition”. The “inhibition of myeloperoxidase activity triggered by AOPP-HSA” value [4] was “dose-dependent inhibition” and the “inhibition of myeloperoxidase activity triggered by AOPP-HSA” value [5] was “dose-dependent inhibition”.
